Patent US12390537B2, “Compositions of polymeric microdevices and methods of use thereof in cancer immunotherapy” (Massachusetts Institute of Technology, priority 2020, dated 2025)

Assays:
Format in all cases: in vivo, mice
[1] = system: phosphorylated-TBK1 (p-TBK1); test: Western blot of B16F10 tumors; settings: tumors at day 16; cGAMP-MPs single injection, cGAMP-S three injections
Protocol: (§1) Mice bearing B16F10 tumors were treated with the following 4 experimental groups (n=8): untreated, 1×EPs, 3×cGAMP-S, and 1×cGAMP-S plus cGAMP-MPs, respectively (FIG. 4A). Tumors were collected at day 16 post tumor inoculation and cut into 50-100 mg small pieces in a 1.5 mL microcentrifuge tube. The tumors were lysed in radioimmunoprecipitation assay (RIPA) buffer (Sigma-Aldrich), homogenized, and centrifuged at 20130 rcf for 10 min. The protein content in the supernatant was quantified using a bicinchoninic acid protein assay kit (Thermo Fisher Scientific, MA, USA). Equal amounts of proteins (20 μg) were separated on a 4 to 15% gradient SDS-polyacrylamide gel (Bio-Rad, Hercules, CA) and electro-transferred to nitrocellulose membrane. The membranes were then blocked with 5% milk in tris-buffered saline supplemented with 0.05% Tween 20 and further incubated with GAPDH monoclonal antibody (Invitrogen, CA, cat. no. MA5-27912), phospho-TBK1/NAK (Ser172) (D52C2) Rabbit mAb (Cell Signaling Technology, cat. no. 5483S), or phospho-IRF-3 (S396) Rabbit mAb (Cell Signaling Technology, cat. no. 4947S) at 4° C. overnight. The membranes were then incubated with goat anti-rabbit IgG (H+L) Secondary Antibody, HRP (Invitrogen, cat. no. TG266717) for 1 h at room temperature. Protein bands were visualized by chemiluminescence using the ECL Western Blotting Substrate (Thermo Fisher Scientific, MA).

[2] = system: phosphorylated-IRF3 (p-IRF3); test: Western blot of B16F10 tumors; settings: tumors at day 16; cGAMP-MPs single injection, cGAMP-S three injections
Protocol: as §1

4T1 lung metastasis = test: Treatment of metastatic 4T1 model; settings: day 34
Protocol: 2×10^5 4 T1 cells were injected into the mammary fat pad. Seven days after injection, tumor-bearing mice were divided into 3 experimental groups: untreated, 3×cGAMP-S, and 1×cGAMP-S plus cGAMP-MPs (10m of cGAMP-S, 5 PLGA-1 microdevices containing 10 μg of cGAMP, and 5 PLGA-2 microdevices containing 10 μg of cGAMP). The primary tumor was surgically removed at day 18 to extend survival. Mice were euthanized at day 34. Lung tissues were stained with India ink and fixed in Fekete's solution. Metastatic foci on the lung were counted under a microscope. Unstained lung tissues were fixed in formalin and stained by H&E. Quantitation of metastatic tumor cells of H&E stained sections was performed using an Aperio ImageScope using tuned positive pixel count algorithm. Briefly, input hue value in the positive pixel count algorithm was tuned to positively select normal lung tissues in red to orange range, while the tumors were negatively selected in purple. Percentage area of tumor metastasis per total lung area was calculated by the number of negative counts (purple)/the number of total counts (purple, orange, and red)×100%. Three H&E sections per lung at different depths were analyzed and averaged to obtain the percentage of tumor over the lung for one mouse. Four or five mice were analyzed for each group.

B16F10 melanoma tumors = test: Treatment of B16F10 melanoma tumors; settings: single injection of high-dose cGAMP-S (40 μg) and EP
Protocol: 2×10^5 4 T1 or 2×10^5 B16F10 cells were subcutaneously injected to the right rear flank of BALB/c mice or C57BL/6 female mice respectively. For orthotopic 4T1 model, 2×10^5 4 T1 cells were injected into the mammary fat pad. Seven days after tumor injection, B16F10 tumor-bearing mice were divided into 6 experimental groups (n=8 for each group): untreated, 1×empty microdevices(EP), 1×cGAMP-S plus EPs, 1×collagen gel, 4×cGAMP-S, and 1×cGAMP-S plus cGAMP-MPs, respectively (FIG. 3D). For the 4×cGAMP-S group, mice were intratumorally administered with 10 μg of cGAMP in 50 μL MC solution (cGAMP-S) at days 0, 4, 8, and 11 to replicate the four doses of soluble cGAMP. The overall does of cGAMP were 40 μg per mouse throughout the treatment period. […] Tumor size was measured every other day starting at day 7 post tumor inoculation with a digital caliper. Tumor volume was calculated using the following formula: length (mm)×width^2 (mm)×0.5. […]
Mice bearing B16F10 tumors were treated with the following 4 experimental groups (n=8): untreated, 1×EPs, 3×cGAMP-S, and 1×cGAMP-S plus cGAMP-MPs, respectively (FIG. 4A). […] The protein content in the supernatant was quantified using a bicinchoninic acid protein assay kit (Thermo Fisher Scientific, MA, USA). […]

SMILES: Nc1nc2c(ncn2[C@@H]2O[C@@H]3COP(=O)(O)O[C@H]4[C@@H](O)[C@H](n5cnc6c(N)ncnc65)O[C@@H]4COP(=O)(O)O[C@H]3[C@H]2O)c(=O)[nH]1 [cGAMP-S, 3′3′-cGAMP]
- expression of p-TBK1 [1]: high expression levels
- expression of p-IRF3 [2]: high expression levels
- number of metastatic foci on lung surfaces (4T1 lung metastasis; cGAMP-MPs single injection day 7, cGAMP-S days 7, 11, 15): significantly decreased
- relative area of tumors in the lungs (4T1 lung metastasis; compared to untreated): reduced
- tumor growth (B16F10 melanoma tumors): exhibited an antitumor effect at early time points but failed to achieve sustained tumor inhibition
- survival time (B16F10 melanoma tumors; untreated 21 days): 25 days
